Results published in article PMC7962642, “A Synergic Potential of Antimicrobial Peptides against Pseudomonas syringae pv. actinidiae” (Molecules, 2021).
Converted amounts (≈) assume the structure as drawn. Where two headings read alike, the source gives them in different places. No end group written: not given here.

Legend:
[1] = test system: Psa strains; assay: Minimal inhibitory concentration (MIC), microplate growth in MHB; type: cell-based, Pseudomonas syringae pv. actinidiae
Experimental: (§1) All strains were obtained from stocks preserved at –80 °C and cultured in King’s B medium (protease peptone, 20.0 g; anhydrous K2HPO4, 1.5 g; glycerol, 10.0 mL; MgSO4·7H2O, 1.5 g; agar, […]; distilled water up to 1.0 L). Individual colonies of each strain were selected and re-streaked two times to ensure purity. Psa strains were isolated in different infected kiwifruit orchards between 2013 and 2017. CFBP7286 was used as Psa biovar 3 reference strain. For the antibiogram assays, pure colonies of all bacterial strains were grown overnight in Muller-Hinton Broth (MHB; Oxoid), at 28 °C and 240 rpm. Bacterial growth was monitored and adjusted to 0.135 optical density at 600 nm (OD600) in a spectrophotometer (Genesys 10uv Scanning, Thermo Scientific). […] For flow cytometry experiments, bacteria were cultured in King’s B broth medium for 20 h, at 25 °C in a shaking incubator at 200 rpm.
(§2) The MIC and MBC were determined for peptides discriminated by the antibiograms as the most efficient, i.e., RW-BP100, CA-M, 3.1, and BP100. […] In this assay, additional concentrations to those used in the antibiogram analysis were included in order to obtain more accurate results. Sterile 96-well microplates were filled with 150 µL of peptide and bacterial solution in a 1:1 ratio, leading to final concentrations of peptides equal to 0.25, 0.75, 1.6, 3.4, 6.2, 10, 25, 50, and 100 µM. As negative control a bacterial-free solution and sterile distilled water was used, and positive control with chlortetracycline to a final concentration of 25 µM was used. Microplates were incubated at 25 °C and 130 rpm and OD600 was measured hourly for 24 h, with 30 s vigorous shaking before each reading. The experiment was repeated three distinct times with different fresh bacterial colonies.
(§3) Data from bacterial growth curves were analyzed to determine IC50 values with two-way ANOVA and Tukey tests (p < 0.05). MIC values were set as the peptide lowest concentrations that reduced bacterial growth.

[2] = test system: Psa strains; assay: Minimal bactericidal concentration (MBC), subculture on peptide-free King's B agar; type: cell-based, Pseudomonas syringae pv. actinidiae
Experimental: as §1, §2, §3

[3] = test system: Psa strains; assay: IC50 from bacterial growth curves; type: cell-based, Pseudomonas syringae pv. actinidiae; conditions: based on bacterial growth curves, read-out: half-maximal inhibitory concentration (IC50)
Experimental: as §2, §3

[4] = test system: Nicotiana tabacum cv. 'Havana' leaves; assay: AMP toxicity on tobacco leaves by syringe infiltration; type: in vivo; conditions: AMP alone in PBS at assay concentration
Experimental: To assess the HR, the Psa reference CFBP7286 strain was used. CFBP7286 cells were more exposed to the AMPs (doses and periods of exposure) than those used on the flow cytometry and the CFUs analyzes; from individual effects of AMPs on the reference CFBP7286 strain, the HR was assessed. Tobacco plants (Nicotiana tabacum cv. ‘Havana’) were sown in plant pots of 1 L in peat substrate (Siro, Mira, Portugal). Plants were grown for 8 weeks in a growth chamber with a controlled temperature at 25 °C ± 2 and relative humidity at 50% ± 5. Psa infiltration on tobacco plants for HR was performed according to Stefani and Loreti using a syringe tip to inoculate 1 mL of bacterial suspension after 1 h of AMPs treatments in the abaxial side of the leaves. PBS was used as a negative control and Psa CFBP7286 at the same concentration and diluted in PBS for 1 h as the treatment was infiltrated as a positive control for HR. The AMPs at the assay concentration were prepared in PBS and infiltrated, also as a negative control of the treatment. The development of HR was monitored within 24 and 48 h post infiltration (hpi). Three tobacco plants, and three leaves of each plant, were used in three independent experiments.

[5] = test system: Psa CFBP7286; type: cell-based; conditions: 1 h treatment; alone or combined with 3.1 at equal concentrations
Experimental: The number of viable bacteria cells of CFBP7286 strains was determined by CFU counting, using bacteria inocula exposed to the same AMPs (doses and periods of exposure) than those used on the flow cytometry assays. In the individual evaluation of BP100, CA-M, and 3.1 AMPs as well as the mixtures BP100:3.1 and CA-M:3.1, CFUs were determined by the drop method in the plate. All treated samples and controls were subjected to 10 serial ^1/10 dilutions in sterile PBS and 10 μL of each dilution was cultured on King’s B agar (1.5%) plates, with further incubation at 25 °C for 24 h. After the incubation time, plates were recorded in a GelDoc (BioRad) and colonies were counted for the last dilution with bacterial growth. This experiment was performed in three biological and temporal replicates.

[6] = test system: tobacco leaf; conditions: cited from earlier work
From the text: The assays on tobacco plants are often used to analyze the toxicity effects of AMPs [[29],[30],[49],[5 ...

[7] = test system: Pseudomonas syringae pv. actinidiae (Psa) strains; assay: Antibiogram assay (peptide drop on inoculated MH agar); type: cell-based; parameters: key: “ns” means the strain was not susceptible to the peptide in the tested concentration range; conditions: 1 µL drop on MH agar, 25 °C, 24 h, tested 0.4-200 µM
Experimental: All strains were obtained from stocks preserved at –80 °C and cultured in King’s B medium (protease peptone, 20.0 g; anhydrous K2HPO4, 1.5 g; glycerol, 10.0 mL; MgSO4·7H2O, 1.5 g; agar, […]; distilled water up to 1.0 L). Individual colonies of each strain were selected and re-streaked two times to ensure purity. Psa strains were isolated in different infected kiwifruit orchards between 2013 and 2017. CFBP7286 was used as Psa biovar 3 reference strain. For the antibiogram assays, pure colonies of all bacterial strains were grown overnight in Muller-Hinton Broth (MHB; Oxoid), at 28 °C and 240 rpm. Bacterial growth was monitored and adjusted to 0.135 optical density at 600 nm (OD600) in a spectrophotometer (Genesys 10uv Scanning, Thermo Scientific). […]
All six AMPs, BP100, RW-BP100, CA-M, D4E1, 3.1, and Dhvar-5 (Table 3), were evaluated by antibiogram assays to determine the most promising peptides against the selected bacterial strains. […]
For the pre-incubation, bacterial cultures were inoculated in Muller-Hinton (MH; Oxoid) agar (1.5%) medium by spreading 1 mL of each culture, removing the excess after 1 min and allowing drying for 15 min. […] After the incubation period, plate images were acquired on Gel Doc (BioRad, Hercules, CA, USA) and AMP activity was determined by no growth on drop site for each concentration. […]

[8] = reference strain CFBP7286, MHB, 96-well, 25 °C, 130 rpm, OD600 hourly for 24 h, repeated three times
[9] = strain AL114b, MHB, 96-well, 25 °C, 130 rpm, OD600 hourly for 24 h, repeated three times
[10] = strain AL115, MHB, 96-well, 25 °C, 130 rpm, OD600 hourly for 24 h, repeated three times
[11] = strain Fv62, MHB, 96-well, 25 °C, 130 rpm, OD600 hourly for 24 h, repeated three times
[12] = strain P85, MHB, 96-well, 25 °C, 130 rpm, OD600 hourly for 24 h, repeated three times
[13] = strain VN29, MHB, 96-well, 25 °C, 130 rpm, OD600 hourly for 24 h, repeated three times
[14] = strain VV10, MHB, 96-well, 25 °C, 130 rpm, OD600 hourly for 24 h, repeated three times
[15] = strain VV112, MHB, 96-well, 25 °C, 130 rpm, OD600 hourly for 24 h, repeated three times
[16] = summary over the eight Psa strains (abstract)
[17] = reference strain CFBP7286, subculture on peptide-free King's B agar, 25 °C, 24 h
[18] = strain AL114b, subculture on peptide-free King's B agar, 25 °C, 24 h
[19] = strain AL115, subculture on peptide-free King's B agar, 25 °C, 24 h
[20] = strain Fv62, subculture on peptide-free King's B agar, 25 °C, 24 h
[21] = strain P85, subculture on peptide-free King's B agar, 25 °C, 24 h
[22] = strain VN29, subculture on peptide-free King's B agar, 25 °C, 24 h
[23] = strain VV10, subculture on peptide-free King's B agar, 25 °C, 24 h
[24] = strain VV112, subculture on peptide-free King's B agar, 25 °C, 24 h
[25] = all strains (for CA-M except P85 and VN29), repeated three times

Molecule: KWKLFKKIGAVLKVL-NH2 [CA-M]
- MIC [1, 8]: 3.4 µM
- MIC [1, 9]: 3.4 µM
- MIC [1, 10]: 3.4 µM
- MIC [1, 11]: 3.4 µM
- MIC [1, 12]: 6.2 µM
- MIC [1, 13]: 6.2 µM
- MIC [1, 14]: 3.4 µM
- MIC [1, 15]: 3.4 µM
- MIC [1, 16]: 3.4 to 6.2 µM
- MBC [2, 17]: 6.2 µM
- MBC [2, 18]: 10 µM
- MBC [2, 19]: 6.2 µM
- MBC [2, 20]: 10 µM
- MBC [2, 21]: 6.2 µM
- MBC [2, 22]: 6.2 µM
- MBC [2, 23]: 6.2 µM
- MBC [2, 24]: 6.2 µM
- MBC [2, 16]: 3.4 to 10 µM
- IC50 [3, 25]: ~2 µM
- IC50 ([3]; strain P85): ~4 µM
- IC50 ([3]; strain VN29): ~4 µM
- AMP toxicity on tobacco plants [4]: absence/low toxicity

Molecule: RRLFRRILRWL-NH2 [RW-BP100]
- MIC [1, 8]: 3.4 µM
- MIC [1, 9]: 6.2 µM
- MIC [1, 10]: 6.2 µM
- MIC [1, 11]: 6.2 µM
- MIC [1, 12]: 6.2 µM
- MIC [1, 13]: 6.2 µM
- MIC [1, 14]: 6.2 µM
- MIC [1, 15]: 6.2 µM
- MBC [2, 17]: 6.2 µM
- MBC [2, 18]: 6.2 µM
- MBC [2, 19]: 6.2 µM
- MBC [2, 20]: 6.2 µM
- MBC [2, 21]: 6.2 µM
- MBC [2, 22]: 6.2 µM
- MBC [2, 23]: 6.2 µM
- MBC [2, 24]: 6.2 µM

Molecule: KKLLKWLLKLL-NH2 [3.1]
- MIC [1, 8]: 10 µM
- MIC [1, 9]: 25 µM
- MIC [1, 10]: 10 µM
- MIC [1, 11]: 10 µM
- MIC [1, 12]: 25 µM
- MIC [1, 13]: 10 µM
- MIC [1, 14]: 10 µM
- MIC [1, 15]: 10 µM
- MBC [2, 17]: 25 µM
- MBC [2, 18]: 25 µM
- MBC [2, 19]: 10 µM
- MBC [2, 20]: 25 µM
- MBC [2, 21]: 25 µM
- MBC [2, 22]: 25 µM
- MBC [2, 23]: 25 µM
- MBC [2, 24]: 25 µM
- AMP toxicity on tobacco plants [4]: absence/low toxicity

Molecule: CC[C@H](C)[C@H](NC(=O)[C@H](CCCCN)NC(=O)[C@H](CCCCN)NC(=O)[C@H](Cc1ccccc1)NC(=O)[C@H](CC(C)C)NC(=O)[C@H](CCCCN)NC(=O)[C@@H](N)CCCCN)C(=O)N[C@@H](CC(C)C)C(=O)N[C@@H](CCCCN)C(=O)N[C@@H](Cc1ccc(O)cc1)C(=O)N[C@@H](CC(C)C)C(N)=O [BP100, reference compound]
- MIC [1, 8]: 3.4 µM (≈ 4.83 µg/mL)
- MIC [1, 9]: 3.4 µM (≈ 4.83 µg/mL)
- MIC [1, 10]: 3.4 µM (≈ 4.83 µg/mL)
- MIC [1, 11]: 3.4 µM (≈ 4.83 µg/mL)
- MIC [1, 12]: 3.4 µM (≈ 4.83 µg/mL)
- MIC [1, 13]: 3.4 µM (≈ 4.83 µg/mL)
- MIC [1, 14]: 3.4 µM (≈ 4.83 µg/mL)
- MIC [1, 15]: 3.4 µM (≈ 4.83 µg/mL)
- MBC [2, 17]: 3.4 µM (≈ 4.83 µg/mL)
- MBC [2, 18]: 3.4 µM (≈ 4.83 µg/mL)
- MBC [2, 19]: 3.4 µM (≈ 4.83 µg/mL)
- MBC [2, 20]: 10 µM (≈ 14.2 µg/mL)
- MBC [2, 21]: 6.2 µM (≈ 8.81 µg/mL)
- MBC [2, 22]: 6.2 µM (≈ 8.81 µg/mL)
- MBC [2, 23]: 6.2 µM (≈ 8.81 µg/mL)
- MBC [2, 24]: 10 µM (≈ 14.2 µg/mL)
- MBC [2, 16]: 3.4 to 10 µM
- IC50 [3, 25]: ~2 µM
- lethal concentration of BP100 by CFUs [5]: 2 µM
- AMP toxicity on tobacco plants [4]: absence/low toxicity
- tobacco leaf lesions ([6]; at 50 µM): 4 mm
- tobacco leaf lesions ([6]; at 250 µM): 12.5 mm

Molecule: LLLFLLKKRKKRKY-NH2 [Dhvar-5]
- antibiogram inhibitory concentration ([7]; strain VC104b): ns
- antibiogram inhibitory concentration ([7]; strain VN29): ns
